Read-outs that look alike come from different tables or passages of the source.
Legend:
Format in all cases: cell-based
[1] = test system: HCV genotype 2a (HCV cell culture system, HCVcc); assay: HCVcc genotype 2a JFH1 (JFH 5a-Rluc) virus in Huh7.5.1 cells, luciferase assay; conditions: Hepatitis C virus, Huh-7.5.1, 72 h, HCV genotype 2a JFH 5a-Rluc, 3 days, read-out: Replicon EC50 2a type
Protocol: (§1) From human liver cells (Huh7.5.1 cell) infected by hepatitis C virus, the anti-virus effects by the compound of the present invention were measured. From HCV genotype 1 b (HCV replicon system), genotype 2a (HCV cell culture system, HCVcc), and genotype 3a, the EC50 values were measured.
In order to measure the EC50 value from HCV genotype 2a, a luciferase assay was used. A JFH1 clone (JFH 5a-Rluc) virus constructed to have a Renilla luciferase enzyme (Rluc) gene in NS5A protein was infected with Huh7.5.1 cell being a host cell, and then the EC50 value was measured by taking cells grown for 3 days by treating the experimental compound under various concentration conditions, and analyzing the activity degree of the luciferase.

[2] = test system: HCV genotype 1 b (HCV replicon system); assay: HCV replicon system genotype 1b, Renilla luciferase activity; conditions: Hepatitis C virus, 72 h, HCV genotype 1b replicon, Rluc, 3 days, read-out: Replicon EC50 1b type
Protocol: as §1
In order to measure the EC50 value from HCV genotype 1 b, the degrees of HCV replication inhibitory activities of an experimental compound were measured. The EC50 value was measured by treating the experimental compound with the HCV replicon systems (genotype 1 b) having Renilla luciferase (Rluc) genes and genotype 1 b non-structure genes under various concentration conditions to compare the activity degree of the luciferase after 3 days elapsed time with that of the control.

[3] = test system: HCV genotype 3a (HCV replicon system); assay: HCV replicon system genotype 3a, firefly luciferase activity; conditions: Hepatitis C virus, 72 h, HCV genotype 3a replicon, Fluc, 3 days, read-out: Replicon EC50 3a type
Protocol: as §1
In order to measure the EC50 value from genotype 3a, the value was measured through the luciferase activity. A HCV replicon system having firefly luciferase (Fluc) genes and genotype 3a non-structure genes was used. The HCV replicon system having the genes as described above was used to treat the experimental compound under various concentration conditions, and then 3 days later, the EC50 value was measured by comparing the luciferase activity with that of the control.

[4] = range limits given with own units (pM to nM)

Row | SMILES | EC50 [1] [nM] | EC50 [2] [pM] | EC50 [3] [pM] | EC50 [2, 4] [pM] | EC50 [3, 4] [pM]
1 | COC(=O)N[C@@H](C(=O)N1CCC[C@H]1C(=O)Nc1ccc2c3ccc(NC(=O)[C@@H]4CCCN4C(=O)[C@H](NC(=O)OC)c4ccccc4)cc3n(Cc3ccc(C(F)(F)F)cc3)c2c1)c1ccccc1 [Example 45, dimethyl ((1R,1′R)-((2S,2′S)-(((9-(4-(trifluoromethyl)benzyl)-9H-carbazole-2,7-diyl)bis(azanediyl))bis(carbonyl))bis(pyrrolidine-2,1-diyl))bis(2-oxo-1-phenylethane-2,1-diyl))dicarbamate] | > 10 | ~10 | 199 |  | 
2 | CCCCn1c2cc(NC(=O)[C@@H]3CCCN3C(=O)[C@H](NC(=O)OC)c3ccccc3)ccc2c2ccc(-c3c[nH]c([C@@H]4CCCN4C(=O)[C@H](NC(=O)OC)c4ccccc4)n3)cc21 [Example 51, methyl ((R)-2-((S)-2-((9-butyl-7-(2-((S)-1-((R)-2-((methoxycarbonyl)amino)-2-phenylacetyl)pyrrolidine-2-yl)-1H-imidazole-4-yl)-9H-carbazole-2-yl)carbamoyl)pyrrolidine-1-yl)-2-oxo-1-phenylethyl)carbamate] | 0.387 | 14.5 | 193 |  | 
3 | CCCCCCCC(c1ccccc1)n1c2cc(NC(=O)[C@@H]3CCCN3C(=O)[C@H](NC(=O)OC)c3ccccc3)ccc2c2ccc(NC(=O)[C@@H]3CCCN3C(=O)[C@H](NC(=O)OC)c3ccccc3)cc21 (stereo partly drawn) [Example 29, dimethyl ((1R,1′R)-((2S,2′S)-(((9-(1-phenyloctyl)-9H-carbazole-2,7-diyl)bis(azanediyl))bis(carbonyl))bis(pyrrolidine-2,1-diyl))bis(2-oxo-1-phenylethane-2,1-diyl))dicarbamate] | 1 to 10 | 10 to 100 | 10000 to 100000 |  | 
4 | CCCCCCCCCCn1c2cc(NC(=O)[C@@H]3CCCN3C(=O)[C@H](NC(=O)OC)c3ccccc3)ccc2c2ccc(NC(=O)[C@@H]3CCCN3C(=O)[C@H](NC(=O)OC)c3ccccc3)cc21 [Example 24, dimethyl ((1R,1′R)-((2S,2′S)-(((9-decyl-9H-carbazole-2,7-diyl)bis(azanediyl))bis(carbonyl))bis(pyrrolidine-2,1-diyl))bis(2-oxo-1-phenylethane-2,1-diyl))dicarbamate] | 10 to 100 | ~10 |  |  | 
5 | CCCCn1c2cc(NC(=O)[C@@H]3CCCN3C(=O)[C@H](NC(=O)OC)c3ccccc3)ccc2c2ccc(-c3c[nH]c([C@@H]4CCCN4C(=O)[C@@H](NC(=O)OC)C(C)C)n3)cc21 [Example 52, methyl ((R)-2-((S)-2-((9-butyl-7-(2-((S)-1-((methoxycarbonyl)-L-valyl)pyrrolidine-2-yl)-1H-imidazole-4-yl)-9H-carbazole-2-yl)carbamoyl)pyrrolidine-1-yl)-2-oxo-1-phenylethyl)carbamate] | 0.171 | 12.3 | 148 |  | 
6 | COC(=O)N[C@@H](C(=O)N1CCC[C@H]1C(=O)Nc1ccc2c3ccc(NC(=O)[C@@H]4CCCN4C(=O)[C@H](NC(=O)OC)c4ccccc4)cc3n(CC3CCCCC3)c2c1)c1ccccc1 [Example 48, dimethyl ((1R,1′R)-((2S,2′S)-(((9-(cyclohexylmethyl)-9H-carbazole-2,7-diyl)bis(azanediyl))bis(carbonyl))bis(pyrrolidine-2,1-diyl))bis(2-oxo-1-phenylethane-2,1-diyl))dicarbamate] |  | 7.41 | 161 |  | 
7 | COC(=O)N[C@@H](C(=O)N1CCC[C@H]1C(=O)Nc1ccc2c3ccc(NC(=O)[C@@H]4CCCN4C(=O)[C@H](NC(=O)OC)c4ccccc4)cc3n(Cc3ccccc3C(F)(F)F)c2c1)c1ccccc1 [Example 43, dimethyl ((1R,1′R)-((2S,2′S)-(((9-(2-(trifluoromethyl)benzyl)-9H-carbazole-2,7-diyl)bis(azanediyl))bis(carbonyl))bis(pyrrolidine-2,1-diyl))bis(2-oxo-1-phenylethane-2,1-diyl))dicarbamate] | > 10 | ~10 |  |  | 
8 | COC(=O)N[C@@H](C(=O)N1CCC[C@H]1C(=O)Nc1ccc2c3ccc(NC(=O)[C@@H]4CCCN4C(=O)[C@H](NC(=O)OC)c4ccccc4)cc3n(Cc3cccc([N+](=O)[O-])c3)c2c1)c1ccccc1 [Example 37, dimethyl ((1R,1′R)-((2S,2′S)-(((9-(3-nitrobenzyl)-9H-carbazole-2,7-diyl)bis(azanediyl))bis(carbonyl))bis(pyrrolidine-2,1-diyl))bis(2-oxo-1-phenylethane-2,1-diyl))dicarbamate] |  | 14.5 | 87.4 |  | 
9 | COC(=O)N[C@@H](C(=O)N1CCC[C@H]1C(=O)Nc1ccc2c3ccc(NC(=O)[C@@H]4CCCN4C(=O)[C@H](NC(=O)OC)c4ccccc4)cc3n(CCc3ccccc3)c2c1)c1ccccc1 [Example 50, dimethyl ((1R,1′R)-((2S,2′S)-(((9-phenethyl-9H-carbazole-2,7-diyl)bis(azanediyl))bis(carbonyl))bis(pyrrolidine-2,1-diyl))bis(2-oxo-1-phenylethane-2,1-diyl))dicarbamate] |  | 4.34 | 183 |  | 
10 | COC(=O)N[C@@H](C(=O)N1CCC[C@H]1C(=O)Nc1ccc2c3ccc(NC(=O)[C@@H]4CCCN4C(=O)[C@H](NC(=O)OC)c4ccccc4)cc3n(C(C3CC3)C3CC3)c2c1)c1ccccc1 [Example 49, dimethyl ((1R,1′R)-((2S,2′S)-(((9-(dicyclopropylmethyl)-9H-carbazole-2,7-diyl)bis(azanediyl))bis(carbonyl))bis(pyrrolidine-2,1-diyl))bis(2-oxo-1-phenylethane-2,1-diyl))dicarbamate] | > 10 | 8.4 | 76.6 |  | 
11 | COC(=O)N[C@@H](C(=O)N1CCC[C@H]1C(=O)Nc1ccc2c3ccc(NC(=O)[C@@H]4CCCN4C(=O)[C@H](NC(=O)OC)c4ccccc4)cc3n(Cc3cccc(C(F)(F)F)c3)c2c1)c1ccccc1 [Example 44, dimethyl ((1R,1′R)-((2S,2′S)-(((9-(3-(trifluoromethyl)benzyl)-9H-carbazole-2,7-diyl)bis(azanediyl))bis(carbonyl))bis(pyrrolidine-2,1-diyl))bis(2-oxo-1-phenylethane-2,1-diyl))dicarbamate] | > 10 | ~10 | 10 to 100 |  | 
12 | CCCCOc1ccccc1Cn1c2cc(NC(=O)[C@@H]3CCCN3C(=O)[C@H](NC(=O)OC)c3ccccc3)ccc2c2ccc(NC(=O)[C@@H]3CCCN3C(=O)[C@H](NC(=O)OC)c3ccccc3)cc21 [Example 32, dimethyl ((1R,1′R)-((2S,2′S)-(((9-(2-butoxybenzyl)-9H-carbazole-2,7-diyl)bis(azanediyl))bis(carbonyl))bis(pyrrolidine-2,1-diyl))bis(2-oxo-1-phenylethane-2,1-diyl))dicarbamate] | 1 to 10 |  |  | 100 to 1000 | 
13 | COC(=O)N[C@@H](C(=O)N1CCC[C@H]1C(=O)Nc1ccc2c3ccc(NC(=O)[C@@H]4CCCN4C(=O)[C@H](NC(=O)OC)c4ccccc4)cc3n(CC3CCCC3)c2c1)c1ccccc1 [Example 47, dimethyl ((1R,1′R)-((2S,2′S)-(((9-(cyclopentylmethyl)-9H-carbazole-2,7-diyl)bis(azanediyl))bis(carbonyl))bis(pyrrolidine-2,1-diyl))bis(2-oxo-1-phenylethane-2,1-diyl))dicarbamate] |  | ~10 |  |  | 
14 | CCCCn1c2cc(NC(=O)[C@@H]3CCCN3C(=O)[C@@H](NC(=O)OC)C(C)C)ccc2c2ccc(NC(=O)[C@@H]3CCCN3C(=O)[C@@H](NC(=O)OC)C(C)C)cc21 [Example 4, dimethyl ((2S,2′S)-((2S,2′S)-(((9-butyl-9H-carbazole-2,7-diyl)bis(azanediyl))bis(carbonyl))bis(pyrrolidine-2,1-diyl))bis(3-methyl-1-oxobutane-1,2-diyl))dicarbamate] |  | 10000 to 100000 |  |  | 
15 | COC(=O)N[C@@H](C(=O)N1CCC[C@H]1C(=O)Nc1ccc2c3ccc(NC(=O)[C@@H]4CCCN4C(=O)[C@H](NC(=O)OC)c4ccccc4)cc3n(CCCCCCCCCCN3CCN(C)CC3)c2c1)c1ccccc1 [Example 33, dimethyl ((1R,1′R)-((2S,2′S)-(((9-(10-(4-methylpiperazine-1-yl)decyl)-9H-carbazole-2,7-diyl)bis(azanediyl))bis(carbonyl))bis(pyrrolidine-2,1-diyl))bis(2-oxo-1-phenylethane-2,1-diyl))dicarbamate] |  |  |  | 100 to 1000 | 100 to 1000
16 | COC(=O)N[C@@H](C(=O)N1CCC[C@H]1C(=O)Nc1ccc2c3ccc(NC(=O)[C@@H]4CCCN4C(=O)[C@H](NC(=O)OC)c4ccccc4)cc3n(Cc3cccc(NC(=O)C(C)(C)C)c3)c2c1)c1ccccc1 [Example 38, dimethyl ((1R,1′R)-((2S,2′S)-(((9-(3-pivalamidobenzyl)-9H-carbazole-2,7-diyl)bis(azanediyl))bis(carbonyl))bis(pyrrolidine-2,1-diyl))bis(2-oxo-1-phenylethane-2,1-diyl))dicarbamate] |  | 35.4 | 81.9 |  | 

Source: patent US10421779B2, “Carbazole compound having anti-virus activity” (priority 2016, dated 2019)
